Reference: patent publication US8501741B2, “Optically active compound of prulifloxacin for treating infection and preparation method thereof” (priority 2010, dated 2013)

Columns and labels:
bacteria = conditions: ulifloxacin enantiomers, small samples from chiral preparation chromatographic column; cited from earlier work
Pseudomonas aeruginosa = test: Systemic infection in mouse, P. aeruginosa; format: in vivo; conditions: Kunming mice, intraperitoneal infection with minimal lethal dose, drug by gavage 1 hour after infection, 7 days observation, Bliss method; for ED50: Pseudomonas aeruginosa, ip
Text: (§1) 1. Origin of testing samples:
(§2) • Levo-ofloxacin was commercially available.
(§3) Prulifloxacin was self-made product, prepared according to the method disclosed in the publication J. Med. Chem. 1992, 35, 4727-4738.
(§4) Levo-prulifloxacin, dextro-prulifloxacin, levo-prulifloxacin hydrochloride, levo-prulifloxacin mesylate were self-made, prepared according to the method described in examples (see respective ordinal number in parenthesis following name of testing drug in Table 6);
(§5) 2. Experimental strains: Bacteria for infecting animals were pathogenic strains isolated from clinic;
(§6) 3. Preparation of liquid bacteria culture: 2-3 colonies were picked and inoculated into M-H broth, followed by incubation for 18 hours at 37° C. The culture was diluted appropriately with 5% dried yeast liquid for use.
(§7) 4. Experimental animals: Healthy SPF Kunming mice were selected, with 18-22 g in body weight, half male and half female.
(§8) 5. Determination of minimal lethal dose of bacteria: Mice were divided randomly, resulting in 10 mice in each group, half male and half female. The above-mentioned bacterial cultures in different dilutions were injected intraperitoneally into mice, in the amount of 0.5 mL per mouse, followed by continuous observation for 7 days after infection and recording the number of death mice. The minimal amount of bacteria which caused 100% death of mice was deemed as minimal lethal dose of bacteria and thereby was adopted for infection tests in vivo. 6. Preparation of testing drugs: The testing drugs were prepared with 1% CMC, respectively. 7. Method for infection and treatment: Experimental animals were divided randomly but evenly based on gender and body weight, resulting in 10 mice in each group, half male and half female. Minimal lethal dose of bacteria were injected intraperitoneally into mice in amount of 0.5 mL/mice, respectively. After infected for 1 hour, the testing drugs in different doses were administered to mice by gavage in the amount of 0.2 ml/10 g, respectively. Seven dose groups of 0.05, 0.10, 0.20, 0.40, 0.80, 1.60, 3.20 mg/kg were set up for Escherichia coli while seven dose groups of 0.50, 1.0, 2.0, 4.0, 8.0, 16.0, 32.0 mg/kg were set up for Pseudomonas aeruginosa. Observation was conducted after administration and death statuses of the mice were recorded. A control group was set up and the number of mice which died within 7 days after infection was recorded at the same time. The obtained data were processed by Bliss method to calculate ED50. 8.

Escherichia coli = test: Systemic infection in mouse, E. coli; format: in vivo; conditions: Kunming mice, intraperitoneal infection with minimal lethal dose, drug by gavage 1 hour after infection, 7 days observation, Bliss method; for ED50: Escherichia coli, ip
Text: as §1, §2, §3, §4, §5, §6, §7, §8

[1] = Acute toxicity test in NIH mice, limited dosage by gavage; conditions: both sexes, mouse, in vivo, po, 5000 mg/kg, single gavage, 2 weeks observation, read-out: LD50 of oral administration
Procedure: Acute toxicity test was conducted in NIH mice by administrating limited-dosages of drugs.
Levo-prulifloxacin; control groups: racemic prulifloxacin group and blank control group
20 NIH mice in each group, half male and half female, 18˜22 g in body weight, were fasted overnight. Levo-prulifloxacin and racemic prulifloxacin were prepared to a 250 mg/ml suspension with 0.3% CMC, respectively, and then administered to the mice by gavage at once in the amount of 0.2 mL/10 g. After administration, observation was firstly conducted for 4 hours continuously, and then once a day for 2 weeks continuously. Animals' responses to toxicity, appearing time and recovering time thereof were recorded. On Day 2, 4, 8, 11 and 15, body weight of the animals were measured and amounts of feed intake were determined. Observation indexes included diet, appearance, behavior, secretion, excrement and the like Animals' death was recorded, starting time, severity, duration of toxic symptoms and toxic reactions, whether the symptoms or reactions are reversible and the like were also recorded. Animals dying from poisoning and dying animals were dissected roughly in time while all other animals were dissected roughly after completing observation. […] The obtained data were processed by Bliss method to calculate LD50.

[2] = background statement; cited from earlier work

| SMILES | ED50 (Pseudomonas aeruginosa) [mg/kg] | ED50 (Escherichia coli) [mg/kg] | ED50 P. aeruginosa (Pseudomonas aeruginosa) [mg/kg] | ED50 E. coli (Escherichia coli) [mg/kg] | also measured |
| --- | --- | --- | --- | --- | --- |
| C[C@@H]1Sc2c(C(=O)O)c(=O)c3cc(F)c(N4CCNCC4)cc3n21 (single isomer, unassigned) [levo-enantiomer] |  |  |  |  | antibacterial activity of levo-enantiomer relative to dextro-enantiomer (bacteria): 2 to 8 times |
| Cc1oc(=O)oc1CN1CCN(c2cc3c(cc2F)c(=O)c(C(=O)O)c2n3C(C)S2)CC1 (racemic) [(+/−) Prulifloxacin, (±)6-fluoro-1-methyl-7-[4-(5-methyl-2-oxo-1,3-dioxolen-4-yl)methyl-1-piperazinyl]-4-oxo-4H-[1,3]thiazeto[3,2-α]quinoline-3-carboxylic acid, reference compound] | 4.04 | 0.53 |  |  | LD50 at 2 weeks [1]: > 5000 mg/kg; half-life [2]: 8 to 9 h; time at which peak blood concentration is attained [2]: 0.5 to 1 h |
| Cc1oc(=O)oc1CN1CCN(c2cc3c(cc2F)c(=O)c(C(=O)O)c2n3C(C)S2)CC1 (single isomer, unassigned; (+)) [(+) Prulifloxacin] |  |  | 8.20 | 1.58 |  |
| Cc1oc(=O)oc1CN1CCN(c2cc3c(cc2F)c(=O)c(C(=O)O)c2n3[C@H](C)S2)CC1 [(−) Prulifloxacin, S-(−)-6-fluoro-1-methyl-7-[4-(5-methyl-2-oxo-1,3-dioxolen-4-yl)methyl-1-piperazinyl]-4-oxo-4H-[1,3]thiazeto[3,2-α]quinoline-3-carboxylic acid] | 1.02 | 0.11 |  |  | LD50 at 2 weeks [1]: > 5000 mg/kg |
| CC1COc2c(N3CCN(C)CC3)c(F)cc3c(=O)c(C(=O)O)cn1c23 (centres unmarked) [Ofloxacin, reference compound] | 16.1 | 0.82 |  |  |  |
| Cc1oc(=O)oc1CN1CCN(c2cc3c(cc2F)c(=O)c(C(=O)O)c2n3[C@H](C)S2)CC1.Cl [(−) Prulifloxacin hydrochloride, S-(−)-6-fluoro-1-methyl-7-[4-(5-methyl-2-oxo-1,3-dioxolen-4-yl)methyl-1-piperazinyl]-4-oxo-4H-[1,3]thiazeto[3,2-α]quinoline-3-carboxylic acid hydrochloride] |  |  | 1.25 | 0.12 |  |
| CS(=O)(=O)O.Cc1oc(=O)oc1CN1CCN(c2cc3c(cc2F)c(=O)c(C(=O)O)c2n3[C@H](C)S2)CC1 [(−) Prulifloxacin mesylate, S-(−)-6-fluoro-1-methyl-7-[4-(5-methyl-2-oxo-1,3-dioxolen-4-yl)methyl-1-piperazinyl]-4-oxo-4H-[1,3]thiazeto[3,2-α]quinoline-3-carboxylic acid mesylate] |  |  | 1.22 | 0.11 |  |
